Measurements reported in ChEMBL document CHEMBL3507680, “University of Dundee, Gates Library screen for HepG2 cell viability”.

Experiment: Human HepG2 cell viability assay in 384 well format
Type: toxicity, cell-based
Design: dose 125 nL, time 70.5 hour; concentration not given beside the values
Settings: HepG2 cells, read-out: Inhibition

SMILES | cytotoxicity at 70.5 h [%]
CCN1CC[C@@]2(C(=O)N3CCOCC3)CCN(C(=O)CC(C)C)CC[C@@H]12 | -2.66
Cc1noc(Cl)c1CCC(=O)N1CCN(c2cnccn2)CC1 | -16.7
CN1CC2(CCCN(c3cc(N4CCCCC4)ncn3)C2)OC1=O (stereo unspecified) | 12.1
c1cncc(-c2ncnc3c2CCN(Cc2ccsc2)CC3)c1 | 19.2
Cc1nc(NC2CC(C)(C)NC(C)(C)C2)c2c(n1)c(C)nn2C | -18.4
Cc1cnc(C)c(N2CCCC(C/C=C/c3ccccc3)(C(=O)O)C2)n1 (stereo unspecified) | -7.68
CCc1ccc(CN2CCNC(C(=O)N3CCN(C)CC3)C2)o1 (stereo unspecified) | -3.44
CC(C)N1CCC(c2n[nH]cc2S(C)(=O)=O)CC1 | -10.2
Cc1n[nH]c(=O)c2c(NC(=O)CN3CCC(C)CC3)oc(C)c12 | -10.7
COc1ccc(CN(C(=O)C(C)SC)c2cnn(C)c2)c(OC)c1 (stereo unspecified) | 1.09
COC(=O)N1CCCC(C(=O)N2CCCCC2)C1 (stereo unspecified) | -4.53
c1cnc(Nc2ccc(C3CCCCN3Cc3ccncc3)cn2)nc1 (stereo unspecified) | -6.32
Cc1nnc2n1CCN(Cc1csc(-c3ncccn3)n1)C2 | 39.4
O=C(c1cccnc1)N1CC(S(=O)(=O)c2ccc(Cl)cc2)C1 | -10.4
Nc1ncc(-c2ccc(C(F)(F)F)cc2)c(C2CCCNC2)n1 (stereo unspecified) | 0.61
CCN(C(=O)c1ccc2nncn2c1)C(C)Cc1ccc(OC)cc1 (stereo unspecified) | -5.25
O=C1CCC(=O)N1CCN1CCC(=Cc2ccccc2)CC1 | -0.346
COc1ccc(CNc2nnc(CC(C)(C)C)o2)cc1C#N | -3.97
N#Cc1cccc(CN2C[C@H](OCC3CCOCC3)[C@H]3COC[C@H]32)c1 | -5.67

SMILES | cytotoxicity at 70.5 h [%]
Cc1ccc(OCCSC2=NCCN2)cc1 | -4.93
CCn1cc(CN2C[C@H]3CC[C@@H]2CN(C(=O)c2cnccn2)C3)cn1 | -5.14
Cc1[nH]c(=O)[nH]c(=O)c1CN1CCCC(CCc2ccccc2)C1 (stereo unspecified) | -5.9
O=C1c2cnc(N3CCOCC3)nc2CN1c1ccc2c(c1)OCO2 | -5.67
CNC(=O)[C@@]12CCC3(CCN(S(C)(=O)=O)CC3)[C@@H]1CN(S(C)(=O)=O)C2 | 1.46
Cc1ccc(CN(C)C(=O)CN2CCCC(Cn3cncn3)C2)o1 (stereo unspecified) | -5.76
CN1Cc2ccccc2CC2(CCN(C(=O)[C@H]3CCCO3)CC2)C1=O | -4.74
CN(Cc1noc(C2CC2)n1)C1CCN(Cc2ccncc2)C1 (stereo unspecified) | -9.86
CC(C)c1ccc(C(O)Cn2c(=O)c(C#N)cn(C3CC3)c2=O)cc1 (stereo unspecified) | -3.45
CN1CCCC1c1ccnc(-c2ccccn2)n1 (stereo unspecified) | -1.8
Cc1noc(C2CN(S(=O)(=O)C3CC3)Cc3ccnn3C2)n1 (stereo unspecified) | 10.2
COc1ccc(C2(NC(=O)c3ccc(=O)n(C)n3)CCCC2)cc1 | -12.4
Cn1cc(C2CCCN2Cc2csc(-c3ccccc3)n2)cn1 (stereo unspecified) | -7.14
CC(C)COCC(NC(=O)c1cccnc1)c1ccco1 (stereo unspecified) | -9.01
Cn1ccnc1CN1CCN(CC(O)c2ccco2)CC1 (stereo unspecified) | -25.9
CN(CC(=O)NCc1ccccn1)C1CCCN(c2cccnn2)C1 (stereo unspecified) | 0.301
CNC(=O)CS(=O)(=O)Cc1cc(Cl)c2c(c1)OCCCO2 | 25.7
Cc1cc(C)nc(C2CCN(C(=O)CO)CC2)n1 | -6.07
CCC(C)NC(=O)c1cc(Br)c2c(c1)OCCO2 (stereo unspecified) | -1.67

SMILES | cytotoxicity at 70.5 h [%]
CC(C)c1nc(CN2CCN(C(=O)CN3CCOCC3)CC2)no1 | 28.7
O=C(c1cccs1)N1CCCn2c(nc(CN3CCCC3)cc2=O)C1 | -0.229
CC(NCCCC#N)c1ccc(-c2cccnc2)cc1 (stereo unspecified) | -2.12
COCC(=O)NC1CC2(CCN(Cc3ccco3)CC2)c2ccccc21 (stereo unspecified) | -12.8
CC(C)CCN1C[C@H]2C[C@H](C(=O)N3CCCC3)[C@@H](C1)O2 | -5.2
COc1cc2ncn(Cc3ncc[nH]3)c(=O)c2cc1OC | -23.4
CN(Cc1cc(C2CC2)[nH]n1)C(=O)c1cnn2ccn(C)c12 | -10.4
CN(C)c1nc(N)nc(CN2CCCC2c2ccsc2)n1 (stereo unspecified) | -7.29
Cc1nc(COC[C@H]2CCC[C@@]23CN(C(C)C)CCO3)cs1 | -6.88
CCOc1cc(=O)n2c(c1C(=O)OCc1ccc(OC)cc1)CCCC2 | -14.9
CCC(=O)N1CCN(C(=O)NCCOc2ccc3c(c2)CCC3)CC1 | -8.5
CCCc1nc(NCCCO)c2c(n1)c(C)nn2CC | -14
COCCN1C(=O)CC(N2CCN(c3ccc(OC)cc3)CC2)C1=O (stereo unspecified) | -7.1
Cc1cc(CS(=O)(=O)C(C)c2ccc(F)cc2)on1 (stereo unspecified) | -5.55
O=C(O)c1cc(S(=O)(=O)Nc2cc(F)ccc2F)cc2c1OCCO2 | -3.33
Cc1cccc(C(=O)N2CCCCC2c2ccc(CN(C)C)cc2)n1 (stereo unspecified) | 18.3
C1CC(CN2CCO[C@H]3[C@H](OCC4CC4)CC[C@@H]32)CCO1 | -2.31
CNC(=O)c1cn2cc(-c3ccccc3Cl)n(CC=C(C)C)c(=O)c2n1 | 35.1
